Experimental data reported in US8691824B2, “Certain kynurenine-3-monooxygenase inhibitors, pharmaceutical compositions, and methods of use thereof” (CHDI Foundation, Inc., priority 2008, dated 2014).

Target: T1, KMO mouse enzyme (Mus musculus, UniProt Q91WN4)
T1 construct: KMO enzyme prepared at Evotec from mouse liver (4-6 weeks old) via mitochondria isolation; from tissue; host or cells: mouse liver (4-6 weeks old), mitochondria isolation
Assay: L-Kynurenine hydroxylation to 3OH-KYN by LC/MS, mouse liver mitochondrial KMO
Format: biochemical
Conditions: compound at 10 μM, read-out: INH.Mouse @ 10 μM
Description: A method of monitoring L-Kynurenine (KYN) hydroxylation to form 3-Hydroxy-Kynurenine (3OH-KYN) by LC/MS is described. Product is quantified by multiple reaction monitoring (MRM method).
• Compound: Stock concentrations: 10 mM in 100% DMSO • Enzyme: KMO enzyme prepared at Evotec from mouse liver (4-6 weeks old) via mitochondria isolation as described in the literature • Substrate: L-Kynurenine (Sigma: Cat# K3750, stock concentration: 10 mM in 100 mM potassium phosphate buffer, pH 7.4) Assay Conditions: • Buffer: 100 mM potassium phosphate, pH 7.4, 200 μM NADPH, 0.4 U/ml G6P-DH (Glucose 6-phosphate Dehydrogenase), 3 mM G6P (D-Glucose 6-phosphate) • Assay Volume: 40 μl • Plate Format: 384 well plate, transparent (Matrix) • Read-Out: product (3OH-KYN) quantification using product specific MRM • Reader: LC/MS/MS Assay Protocol: • prepare serial dilution (factor 3) of compound in 100% DMSO (top concentration=10 mM, 100% DMSO) • [8 points: 10 mM; 3.33 mM; 1.11 mM; 0.37 mM; 0.12 mM; 0.04 mM; 0.0137 mM; 0.0045 mM, 0.0015 mM] • prepare […] concentrated solution of each compound concentration (top concentration 300 μM, 3% DMSO) in assay buffer • [concentrations: 300 μM; 100 μM; 33.3 μM; 11.1 μM; 3.70 μM; 1.23 μM; 0.41 μM; 0.137 μM] • prepare substrate (10 mM) at concentration of 1 mM in assay buffer • assay mix: 4 μl compound/well of each concentration+24 μl assaybuffer/well+8 μl KMO mouse enzyme+4 μl 1 mM substrate (final concentration=100 μM) • [final compound top concentration: 30 μM; 0.3% DMSO] • [final compound bottom concentration: 0.0137 μM; 0.3% DMSO] • positive control: 4 μl 50 μM FCE28833 in assay buffer, 0.5% DMSO [final assay concentration=5 μM]+24 μl assaybuffer/well+8 μl KMO mouse enzyme+4 μl 1 mM substrate [final concentration=100 μM] • negative control: 28 μl assay buffer/well+8 μl KMO mouse enzyme+4 μl 1 mM substrate [final concentration=100 μM] • incubate 40 min at RT • add 40 μl/well 10% trichloro acetic acid in water to stop the assay and precipitate protein • centrifuge plate for 3 min at 4000 rpm • product detection by LC/MS (injection of 20 μl/well, 2 fold overfill of the 10 μl sample loop) Data Analysis:
IC50's are calculated using automated fitting algorithm (A+Analysis).
Using procedures similar to those described herein, the following compounds were assayed for activity.

T1 sequence (Q91WN4 whole entry): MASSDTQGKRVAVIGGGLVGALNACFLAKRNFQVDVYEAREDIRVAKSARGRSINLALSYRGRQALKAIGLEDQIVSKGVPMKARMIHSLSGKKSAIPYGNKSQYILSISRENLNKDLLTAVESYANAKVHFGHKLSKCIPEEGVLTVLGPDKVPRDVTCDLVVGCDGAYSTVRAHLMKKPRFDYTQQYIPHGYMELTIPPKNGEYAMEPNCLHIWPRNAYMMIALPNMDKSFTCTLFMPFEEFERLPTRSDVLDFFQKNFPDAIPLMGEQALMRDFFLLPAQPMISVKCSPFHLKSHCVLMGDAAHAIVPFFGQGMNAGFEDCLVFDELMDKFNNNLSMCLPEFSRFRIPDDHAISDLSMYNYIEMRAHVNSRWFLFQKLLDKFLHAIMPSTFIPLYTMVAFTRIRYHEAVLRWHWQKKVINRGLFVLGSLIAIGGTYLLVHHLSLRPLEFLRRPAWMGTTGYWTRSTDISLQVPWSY

Row | SMILES | inhibition at 10 µM [%]
1 | Cc1ncc(NC(=O)CC2CON=C2c2ccc(Cl)c(Cl)c2)cn1 (stereo not drawn) [2-[3-(3,4-Dichloro-phenyl)-4,5-dihydro-isoxazol-4-yl]-N-(2-methyl-pyrimidin-5-yl)-acetamide] | 81.2
2 | Cc1cc(NC(=O)CC2CON=C2c2ccc(Cl)c(Cl)c2)on1 (stereo not drawn) [2-[3-(3,4-Dichloro-phenyl)-4,5-dihydro-isoxazol-4-yl]-N-(3-methyl-isoxazol-5-yl)-acetamide] | 64
3 | O=C(CC1CON=C1c1ccc(Cl)c(Cl)c1)Nc1cccnc1 (stereo not drawn) [2-[3-(3,4-Dichloro-phenyl)-4,5-dihydro-isoxazol-4-yl]-N-pyridin-3-yl-acetamide] | 77.2
4 | O=C(CC1CON=C1c1ccc(Cl)c(Cl)c1)Nc1cncnc1 (stereo not drawn) [2-[3-(3,4-Dichloro-phenyl)-4,5-dihydro-isoxazol-4-yl]-N-pyrimidin-5-yl-acetamide] | 82.7
5 | O=C(O)CC1CON=C1c1cccc(Cl)c1 (stereo not drawn) [3-(3-Chloro-phenyl)-4,5-dihydro-isoxazol-4-yl]-acetic acid] | 106
6 | CCOC(=O)Cc1cc(-c2ccc(Cl)c(Cl)c2)no1 [[3-(3,4-Dichloro-phenyl)-isoxazol-5-yl]-acetic acid ethyl ester] | 60.8
7 | COC(=O)Cc1cc(-c2ccc(Cl)c(Cl)c2)no1 [[3-(3,4-Dichloro-phenyl)-isoxazol-5-yl]-acetic acid methyl ester] | 66.4

The remaining lines, values ahead:

Row | inhibition at 10 µM [%] | SMILES
8 | 60.4 | NC(=O)CC1CON=C1c1ccc(Cl)c(Cl)c1 (stereo not drawn) [2-[3-(3,4-Dichloro-phenyl)-4,5-dihydro-isoxazol-4-yl]-acetamide]
9 | 102 | COC(=O)CC1CON=C1c1ccc(Cl)c(Cl)c1 (stereo not drawn) [[3-(3,4-Dichloro-phenyl)-4,5-dihydro-isoxazol-4-yl]-acetic acid methyl ester]
10 | 101 | O=C(O)CC1CON=C1c1ccc(Cl)c(Cl)c1 (stereo not drawn) [[3-(3,4-Dichloro-phenyl)-4,5-dihydro-isoxazol-4-yl]-acetic acid]
11 | 88.4 | COC(=O)CC1CC(c2ccc(Cl)c(Cl)c2)=NO1 (stereo not drawn) [[3-(3,4-Dichloro-phenyl)-4,5-dihydro-isoxazol-5-yl]-acetic acid methyl ester]
12 | 93.3 | O=C(O)CC1CC(c2ccc(Cl)c(Cl)c2)=NO1 (stereo not drawn) [[3-(3,4-Dichloro-phenyl)-4,5-dihydro-isoxazol-5-yl]-acetic acid]
13 | 84.5 | CC1ON=C(c2ccc(Cl)c(Cl)c2)C1CC(=O)O (stereo not drawn) [[3-(3,4-Dichloro-phenyl)-5-methyl-4,5-dihydro-isoxazol-4-yl]-acetic acid]
14 | 74.7 | O=C(O)Cc1conc1-c1ccc(Cl)c(Cl)c1 [[3-(3,4-Dichloro-phenyl)-isoxazol-4-yl]-acetic acid]
15 | 74.5 | O=C(O)Cc1cc(-c2ccc(Cl)c(Cl)c2)no1 [[3-(3,4-Dichloro-phenyl)-isoxazol-5-yl]-acetic acid]
